Assay results taken from PubChem BioAssay (NCI).
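Tested at 5 concentrations; 48 h exposure; 96-well plates; endpoints linearly interpolated, else capped at highest concentration. At the GI50, growth is halved. TGI denotes the concentration required for complete inhibition of growth.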

Assays:
Assay in all cases: NCI anticancer screen, dose series, 48 h
OVCAR-3 ovarian = system: OVCAR-3 ovarian
A549 NSCLC = system: A549 NSCLC
SR leukemia = system: SR leukemia
HOP-92 NSCLC = system: HOP-92 NSCLC
SK-OV-3 ovarian = system: SK-OV-3 ovarian
M14 melanoma = system: M14 melanoma
OVCAR-4 ovarian = system: OVCAR-4 ovarian
MDA-MB-435 = system: MDA-MB-435
SNB-75 CNS = system: SNB-75 CNS
MDA-MB-231 breast = system: MDA-MB-231 breast
MOLT-4 leukemia = system: MOLT-4 leukemia
HCT-116 colon = system: HCT-116 colon
NCI-H522 lung = system: NCI-H522 lung
T-47D breast = system: T-47D breast
IGROV1 ovarian = system: IGROV1 ovarian
MCF7 breast = system: MCF7 breast
RXF 393 renal = system: RXF 393 renal
EKVX NSCLC = system: EKVX NSCLC
SK-MEL-5 melanoma = system: SK-MEL-5 melanoma
U251 CNS = system: U251 CNS
786-0 renal = system: 786-0 renal
TK-10 renal = system: TK-10 renal
HOP-62 NSCLC = system: HOP-62 NSCLC
CAKI-1 renal = system: CAKI-1 renal
LOX IMVI melanoma = system: LOX IMVI melanoma
HS 578T breast = system: HS 578T breast
SN12C renal = system: SN12C renal
UACC-62 melanoma = system: UACC-62 melanoma
UO-31 renal = system: UO-31 renal
MALME-3M melanoma = system: MALME-3M melanoma
SF-268 CNS = system: SF-268 CNS
OVCAR-8 ovarian = system: OVCAR-8 ovarian
CCRF-CEM leukemia = system: CCRF-CEM leukemia
ACHN renal = system: ACHN renal
SK-MEL-28 melanoma = system: SK-MEL-28 melanoma
PC-3 prostate = system: PC-3 prostate
COLO 205 colon = system: COLO 205 colon
UACC-257 melanoma = system: UACC-257 melanoma
BT-549 breast = system: BT-549 breast
SF-539 CNS = system: SF-539 CNS
K-562 leukemia = system: K-562 leukemia
A498 renal = system: A498 renal
NCI-H23 lung = system: NCI-H23 lung
NCI-H226 lung = system: NCI-H226 lung
DU-145 prostate = system: DU-145 prostate
HL-60(TB) leukemia = system: HL-60(TB) leukemia
KM12 colon = system: KM12 colon
SNB-19 CNS = system: SNB-19 CNS
SW-620 colon = system: SW-620 colon
HT29 colon = system: HT29 colon
HCC-2998 colon = system: HCC-2998 colon
SF-295 CNS = system: SF-295 CNS
RPMI-8226 leukemia = system: RPMI-8226 leukemia
NCI/ADR-RES ovarian = system: NCI/ADR-RES ovarian
SK-MEL-2 melanoma = system: SK-MEL-2 melanoma
OVCAR-5 ovarian = system: OVCAR-5 ovarian
NCI-H460 lung = system: NCI-H460 lung
MDA-MB-468 breast = system: MDA-MB-468 breast
HCT-15 colon = system: HCT-15 colon

O=C(/C=C/Nc1ccc(Cl)cc1)c1ccc2c(c1)Nc1ccccc1S2 was tested, and the GI50 (OVCAR-3 ovarian) was 11.4 µM, the TGI (OVCAR-3 ovarian) was 30.5 µM and the GI50 (A549 NSCLC) was 6.43 µM. It also gave a TGI (A549 NSCLC) of 23.9 µM, a GI50 (SR leukemia) of 21.2 µM and a TGI (SR leukemia) of over 100 µM. It also gave a GI50 (HOP-92 NSCLC) of 12.6 µM, a TGI (HOP-92 NSCLC) of 29.9 µM and a GI50 (SK-OV-3 ovarian) of 12.9 µM. It also gave a TGI (SK-OV-3 ovarian) of 29.5 µM, a GI50 (M14 melanoma) of 14.6 µM and a TGI (M14 melanoma) of 40.2 µM. For the same compound, the GI50 (OVCAR-4 ovarian) was 2.84 µM, the TGI (OVCAR-4 ovarian) was 10.4 µM and the GI50 (MDA-MB-435) was 11.3 µM. For the same compound, the TGI (MDA-MB-435) was 39.4 µM, the GI50 (SNB-75 CNS) was 1.96 µM and the TGI (SNB-75 CNS) was 6.85 µM. For the same compound, the GI50 (MDA-MB-231 breast) was 13.3 µM, the TGI (MDA-MB-231 breast) was 27.9 µM and the GI50 (MOLT-4 leukemia) was 17.6 µM. For the same compound, the TGI (MOLT-4 leukemia) was over 100 µM, the GI50 (HCT-116 colon) was 10.3 µM and the TGI (HCT-116 colon) was 29.9 µM. The GI50 (NCI-H522 lung) was 5.1 µM, the TGI (NCI-H522 lung) was 23.9 µM and the GI50 (T-47D breast) was 12.9 µM. For the same compound, the TGI (T-47D breast) was 56.4 µM, the GI50 (IGROV1 ovarian) was 13.2 µM and the TGI (IGROV1 ovarian) was 34.6 µM. For the same compound, the GI50 (MCF7 breast) was 6.64 µM, the TGI (MCF7 breast) was 23.9 µM and the GI50 (RXF 393 renal) was 14.4 µM. The TGI (RXF 393 renal) was 30.5 µM, the GI50 (EKVX NSCLC) was 14.6 µM and the TGI (EKVX NSCLC) was 36.8 µM. It also gave a GI50 (SK-MEL-5 melanoma) of 12.4 µM, a TGI (SK-MEL-5 melanoma) of 28.4 µM and a GI50 (U251 CNS) of 6.88 µM. The TGI (U251 CNS) was 21.3 µM, the GI50 (786-0 renal) was 11 µM and the TGI (786-0 renal) was 23.3 µM. It also gave a GI50 (TK-10 renal) of 13.3 µM, a TGI (TK-10 renal) of 28.8 µM and a GI50 (HOP-62 NSCLC) of 4.15 µM. For the same compound, the TGI (HOP-62 NSCLC) was 17.1 µM, the GI50 (CAKI-1 renal) was 10.1 µM and the TGI (CAKI-1 renal) was 24.6 µM. It also gave a GI50 (LOX IMVI melanoma) of 10.1 µM, a TGI (LOX IMVI melanoma) of 23.7 µM and a GI50 (HS 578T breast) of 3.42 µM. It also gave a TGI (HS 578T breast) of 19 µM, a GI50 (SN12C renal) of 13.7 µM and a TGI (SN12C renal) of 66.5 µM. For the same compound, the GI50 (UACC-62 melanoma) was 10.2 µM, the TGI (UACC-62 melanoma) was 25.7 µM and the GI50 (UO-31 renal) was 16.9 µM. It also gave a TGI (UO-31 renal) of 34.3 µM, a GI50 (MALME-3M melanoma) of 11.4 µM and a TGI (MALME-3M melanoma) of 24.7 µM. For the same compound, the GI50 (SF-268 CNS) was 6.05 µM, the TGI (SF-268 CNS) was 25.1 µM and the GI50 (OVCAR-8 ovarian) was 4.38 µM. The TGI (OVCAR-8 ovarian) was 17.8 µM, the GI50 (CCRF-CEM leukemia) was 16.9 µM and the TGI (CCRF-CEM leukemia) was 69.2 µM. It also gave a GI50 (ACHN renal) of 11 µM, a TGI (ACHN renal) of 27.8 µM and a GI50 (SK-MEL-28 melanoma) of 24 µM. It also gave a TGI (SK-MEL-28 melanoma) of 79.1 µM, a GI50 (PC-3 prostate) of 7.55 µM and a TGI (PC-3 prostate) of 25.1 µM. For the same compound, the GI50 (COLO 205 colon) was 11.9 µM, the TGI (COLO 205 colon) was 28.6 µM and the GI50 (UACC-257 melanoma) was 18.7 µM. The TGI (UACC-257 melanoma) was 59.9 µM, the GI50 (BT-549 breast) was 9.67 µM and the TGI (BT-549 breast) was 33.8 µM. For the same compound, the GI50 (SF-539 CNS) was 8.84 µM, the TGI (SF-539 CNS) was 21.5 µM and the GI50 (K-562 leukemia) was 18.5 µM. It also gave a TGI (K-562 leukemia) of over 100 µM, a GI50 (A498 renal) of 18.4 µM and a TGI (A498 renal) of 42.5 µM. The GI50 (NCI-H23 lung) was 5.34 µM, the TGI (NCI-H23 lung) was 20.4 µM and the GI50 (NCI-H226 lung) was 11.6 µM. For the same compound, the TGI (NCI-H226 lung) was 37 µM, the GI50 (DU-145 prostate) was 8.43 µM and the TGI (DU-145 prostate) was 27.7 µM. The GI50 (HL-60(TB) leukemia) was 69.8 µM, the TGI (HL-60(TB) leukemia) was over 100 µM and the GI50 (KM12 colon) was 14.6 µM. The TGI (KM12 colon) was 55.2 µM, the GI50 (SNB-19 CNS) was 12.2 µM and the TGI (SNB-19 CNS) was 29.3 µM. The GI50 (SW-620 colon) was 10.2 µM, the TGI (SW-620 colon) was 24.7 µM and the GI50 (HT29 colon) was 13.1 µM. For the same compound, the TGI (HT29 colon) was 32 µM, the GI50 (HCC-2998 colon) was 13.2 µM and the TGI (HCC-2998 colon) was 36.8 µM. It also gave a GI50 (SF-295 CNS) of 4.19 µM, a TGI (SF-295 CNS) of 17.1 µM and a GI50 (RPMI-8226 leukemia) of 17.7 µM. It also gave a TGI (RPMI-8226 leukemia) of over 100 µM, a GI50 (NCI/ADR-RES ovarian) of 5.71 µM and a TGI (NCI/ADR-RES ovarian) of 20.1 µM. The GI50 (SK-MEL-2 melanoma) was 13.6 µM, the TGI (SK-MEL-2 melanoma) was 32.8 µM and the GI50 (OVCAR-5 ovarian) was 15.9 µM. It also gave a TGI (OVCAR-5 ovarian) of 68.2 µM, a GI50 (NCI-H460 lung) of 3.77 µM and a TGI (NCI-H460 lung) of 14.7 µM. The GI50 (MDA-MB-468 breast) was 3.44 µM, the TGI (MDA-MB-468 breast) was 14.1 µM and the GI50 (HCT-15 colon) was 14.9 µM. For the same compound, the TGI (HCT-15 colon) was over 100 µM.
